Measurements published in patent US7442794B2, “Rearranged pentanols, a process for their production and their use as anti-inflammatory agents” (Schering AG, priority 2003, dated 2008).

Columns and labels:
[1] = biological target: glucocorticoid receptor (GR) (Homo sapiens, UniProt P04150); assay: biochemical
Source text: The binding of the substances to the glucocorticoid receptor (GR) and other steroid hormone receptors (mineral corticoid receptor (MR), progesterone receptor (PR) and androgen receptor (AR)) is examined with the aid of recombinantly produced receptors. Cytosol preparations of Sf9 cells, which had been infected with recombinant baculoviruses, which code for the GR, are used for the binding studies.

[2] = test system: secretion of cytokine IL-8 in human monocyte cell line THP-1 triggered by lipopolysaccharide (LPS); assay: Inhibition of LPS-triggered secretion of cytokine IL-8 in THP-1 cells (ELISA); assay type: cell-based; details: LPS-triggered IL-8 secretion, THP-1, supernatant ELISA, read-out: inhibition IC50(IL8)
Protocol: The concentration of the cytokines was determined in the supernatant by means of commercially available ELISA kits.

glucocorticoid receptor (GR), sequence (P04150 whole entry, species assumed): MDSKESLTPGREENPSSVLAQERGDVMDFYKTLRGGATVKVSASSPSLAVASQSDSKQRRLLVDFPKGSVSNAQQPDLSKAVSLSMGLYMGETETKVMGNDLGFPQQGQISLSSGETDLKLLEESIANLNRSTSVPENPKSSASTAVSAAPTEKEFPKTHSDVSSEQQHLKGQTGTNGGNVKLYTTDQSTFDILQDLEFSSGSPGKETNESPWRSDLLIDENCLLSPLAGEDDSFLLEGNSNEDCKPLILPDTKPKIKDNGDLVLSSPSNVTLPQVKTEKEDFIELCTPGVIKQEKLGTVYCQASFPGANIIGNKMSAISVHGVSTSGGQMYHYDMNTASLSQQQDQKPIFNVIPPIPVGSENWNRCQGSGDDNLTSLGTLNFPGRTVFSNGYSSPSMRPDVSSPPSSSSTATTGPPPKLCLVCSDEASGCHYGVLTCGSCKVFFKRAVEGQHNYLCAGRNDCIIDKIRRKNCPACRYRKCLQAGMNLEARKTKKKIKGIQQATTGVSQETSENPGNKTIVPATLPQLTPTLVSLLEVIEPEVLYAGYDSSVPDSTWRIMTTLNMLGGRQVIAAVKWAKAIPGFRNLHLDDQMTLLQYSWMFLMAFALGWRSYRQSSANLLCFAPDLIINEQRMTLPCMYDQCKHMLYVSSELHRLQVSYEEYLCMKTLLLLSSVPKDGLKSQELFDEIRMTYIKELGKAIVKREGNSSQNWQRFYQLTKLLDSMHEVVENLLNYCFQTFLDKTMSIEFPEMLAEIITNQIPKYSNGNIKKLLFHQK

melting point [°C]	IC50 [1] [nM]	IC50 [2] [nM]	Compound
72 to 73			C=C(C)CC(O)(C(Nc1ccc(F)c2nc(C)ncc12)c1ccc(Cl)cc1OC)C(F)(F)F (racemic) [Example 7, 2-{4-Chloro-alpha-[(8-fluoro-2-methylquinazolin-5-yl)amino]-2-methoxybenzyl}-1,1,1-trifluoro-4-methylpent-4-en-2-ol]
	64	25	C=C(C)CC(O)(C(Nc1cccc2c(=O)[nH]ccc12)c1cc(Br)ccc1O)C(F)(F)F (stereo not drawn) [Example 3, 5-{[1-(5-Bromo-2-hydroxyphenyl)-2-hydroxy-4-methyl-2-(trifluoromethyl)-pent-4-en-1-yl]amino}-isoquinolin-1(2H)-one]
